Laboratory results from patent US20250041330A1, “METHOD OF TREATING OBESITY BY SELECTIVE TARGETING OF VISCERAL ADIPOSITY USING POLYCATION NANOMEDICINE” (THE TRUSTEES OF COLUMBIA UNIVERSITY IN THE CITY OF NEW YORK, priority 2022, published 2025).

Test system: 3T3-L1 cells
Assay: 3T3-L1 adipocyte differentiation (lipid staining, qPCR)
Format: cell-based, mouse
Settings: NMN 20 mM with P-G3 10 μg/ml, day 0-3 of differentiation
Procedure: 3T3-L1 (ATCC CL-173) and C3H10T1/2 (CCL-226) cells were purchased from ATCC and cultured in high glucose DMEM supplemented with 10% calf serum (CS, Gemini Bio-Products 100-506) or FBS (heat-inactivated, Corning 35-011-CV), and 1× Pen Strep (Thermo Fisher). Cells were differentiated in the standard adipogenic cocktail after reaching confluence for 2 days. The cocktail contains DMEM, 10% FBS, 1 μM dexamethasone (DEX), 10 μg/ml insulin and 0.5 mM 3-isobutyl-1-methylxanthine (IBMX). 5 μM Rosiglitazone was used in the first two days to facilitate C3H10T1/2 cells' differentiation. After induction for two days, cells were maintained in a complete medium containing 2.5 μg/ml insulin until fully differentiated. P-G3 polymers or NPs (10 μg/ml) were added at indicated times, and cells were harvested during differentiation for analyses. Lipid droplets were visualized using Oil Red O staining or BODIPY staining. 3T3-L1 cells were treated with rapamycin (100 nM) from Day 4 to Day 6. […]
Total RNA from tissues or cells was extracted by using the TriZol reagent (Thermo Fisher) in combination with an RNA isolation kit from Macherey-Nagel. […] Bio-Rad CFX96 Real-Time PCR system was used to perform quantitative real-time PCR (qPCR) with goTaq qPCR Master Mix (Promega). The relative gene expression was calculated by using the ΔΔCt method with Cyclophilin A or Rpl23 as the reference gene. […]

NC(=O)c1ccc[n+]([C@@H]2O[C@H](COP(=O)([O-])O)[C@@H](O)[C@H]2O)c1 [NMN, nicotinamide mononucleotide]
effect on P-G3's pro-adipogenic effect: counteracted the pro-adipogenic effect of P-G3
